Assay: Fraction of drug in microparticles and in MCT oil carrier after storage
Type: physicochemical
Source text: Mixtures ranged from 2% to 10% w/w of the active pharmaceutical ingredient. The mixed powder was transferred to an extruder where the temperature was adjusted according to the chosen polymer. Some polymers needed higher temperatures to produce a melt with good flow properties. The extruder contained twin screws that moved clockwise to produce efficient mixing. The material was extruded through a 1.5 mm orifice, collected, cooled at room temperature, and cut into short strands about 1-2 inches long. These strands were then fed into a 12-tooth rotor mill, followed by a sieving step to produce microparticles of about 20 to 100 microns. The microparticles were collected and stored at 5° C. until further use.
Experimental samples were prepared by dispersing about 50 mg of the microparticles into 0.75 mL of a MCT oil carrier. The samples were stored at 5° C. and 25° C. for two days, two weeks, or one month, at which times representative samples were tested. The fraction of drug that remained in the microparticles and the fraction of drug that partitioned into the MCT oil carrier were determined. Briefly, the samples were centrifuged to separate the microparticles from the MCT oil carrier. Each portion was treated independently to determine the amount of drug it contained. Results are reported on the basis of the percent residing in each independent portion.

[1] = PLGA copolymer, 1 Month Storage at 5° C.
[2] = PLGA copolymer, 1 Month Storage at 25° C.
[3] = PLGA copolymer, 2 Days Storage at 5° C.
[4] = PLGA copolymer, 2 Days Storage at 25° C.
[5] = polycaprolactone/PLGA copolymer, Two Weeks Storage, 5° C.
[6] = polycaprolactone/PLGA copolymer, Two Weeks Storage, 25° C.

percent of drug in MCT Carrier [5] [%]	percent of drug in Microparticles [5] [%]	percent of drug in MCT Carrier [6] [%]	percent of drug in Microparticles [6] [%]	Compound	percent of drug in MCT Carrier [1] [%]	percent of drug in Microparticles [1] [%]	percent of drug in MCT Carrier [2] [%]	percent of drug in Microparticles [2] [%]	percent of drug in MCT Carrier [3] [%]	percent of drug in Microparticles [3] [%]	percent of drug in MCT Carrier [4] [%]	percent of drug in Microparticles [4] [%]	migration into the MCT carrier oil (from microparticles on storage)
0.0	100.0	0.0	100.0	CC[C@H](C)[C@H](NC(=O)[C@@H]1CCCN1C(=O)CNC(=O)[C@H](Cc1ccccc1)NC(=O)[C@H](CC(N)=O)NC(=O)[C@H](CC(N)=O)NC(=O)[C@H](CO)NC(=O)[C@H](CO)NC(=O)[C@H](Cc1c[nH]cn1)NC(=O)[C@@H](NC(=O)[C@H](CC(C)C)NC(=O)[C@H](Cc1ccccc1)NC(=O)[C@H](CC(N)=O)NC(=O)[C@H](C)NC(=O)[C@H](CC(C)C)NC(=O)[C@H](CCCNC(=N)N)NC(=O)[C@H](CCC(N)=O)NC(=O)[C@@H](NC(=O)[C@H](C)NC(=O)[C@@H]1CSSC[C@H](NC(=O)[C@@H](N)CCCCN)C(=O)N[C@@H](CC(N)=O)C(=O)N[C@@H]([C@@H](C)O)C(=O)N[C@@H](C)C(=O)N[C@@H]([C@@H](C)O)C(=O)N1)[C@@H](C)O)C(C)C)C(=O)N[C@@H](CC(C)C)C(=O)N1CCC[C@H]1C(=O)N1CCC[C@H]1C(=O)N[C@H](C(=O)N[C@@H](CC(N)=O)C(=O)N[C@H](C(=O)NCC(=O)N[C@@H](CO)C(=O)N[C@@H](CC(N)=O)C(=O)N[C@H](C(=O)N[C@@H](Cc1ccc(O)cc1)C(N)=O)[C@@H](C)O)C(C)C)[C@@H](C)O [pramlintide]	0.3	99.7	0.0	100.0	0.0	100.0	0.0	100.0	–
–	–	–	–	O=C(O)c1ccccc1O [salicylic acid]	0.1	99.9	0.2	99.8	1.1	98.9	0.9	99.1	did not migrate
–	–	–	–	O=C([O-])c1ccccc1O.[Na+] [sodium salicylate]	1.3	98.7	1.5	98.5	0.5	99.5	2.3	97.7	–
–	–	–	–	bovine serum albumin	0.0	100.0	0.0	100.0	0.0	100.0	0.0	100.0	–
–	–	–	–	davalintide	0.6	99.4	0.0	100.0	0.2	99.8	0.0	100.0	–
–	–	–	–	insulin	0.5	99.5	0.7	–	–	–	–	–	–
–	–	–	–	metreleptin	0.0	100.0	0.0	100.0	0.0	100.0	0.0	100.0	–
